Structures are written as SMILES.

The target of one assay is T1, PPAR-alpha (Homo sapiens, UniProt Q07869).
T1 sequence (Q07869 1-468): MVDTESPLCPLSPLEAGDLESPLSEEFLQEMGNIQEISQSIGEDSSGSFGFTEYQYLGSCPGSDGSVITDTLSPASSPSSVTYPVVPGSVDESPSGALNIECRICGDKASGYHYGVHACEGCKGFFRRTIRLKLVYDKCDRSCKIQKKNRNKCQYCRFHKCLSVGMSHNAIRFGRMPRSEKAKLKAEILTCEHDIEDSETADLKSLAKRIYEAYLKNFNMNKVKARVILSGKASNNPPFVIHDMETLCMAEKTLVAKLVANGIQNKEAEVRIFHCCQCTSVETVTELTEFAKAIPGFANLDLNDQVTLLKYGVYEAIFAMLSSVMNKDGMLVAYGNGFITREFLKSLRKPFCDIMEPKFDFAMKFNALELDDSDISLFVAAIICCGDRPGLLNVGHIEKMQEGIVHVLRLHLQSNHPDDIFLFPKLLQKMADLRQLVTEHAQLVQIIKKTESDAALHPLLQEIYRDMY
In words: PPAR-alpha activation in reporter cell lines. The format is cell-based. As to conditions: concentration of 10^−4 M. From the text:
FIG. 6 illustrates relative PPARα activation potential (%) in reporter cell lines using concentrations ranging from 10^−5M-10^−9M for the selective synthetic PPARα activator WY14,643 as well as the isolated compounds at a concentration of 10^−4M and a 1:10 aqueous solution of FE seed extract, with compound label: FE19028 (Nuzhenide, 3), FE20015 (G13, 4), FE20031 (oleoside dimethyl ester, 6), FE21008 (excelside A, 1), and FE21023 (GI5, 5);
PPAR-alpha activity of excelside A (1), GI3 (4), and oleoside dimethyl ester (6). Five single compounds isolated from Fraxinus excelsior (FE) seed water extract were tested for PPAR-alpha activity. The synthetic and selective PPAR alpha activator WY14,643 served as positive control and DMSO which was used to dissolve these compounds as negative control in the assay.

A further assay relates to 3T3-L1 cells. In words: adipogenesis inhibition, glucose uptake of MDI-induced 3T3-L1 preadipocytes. The class given is cell-based. The settings on record: 0.004%, 0.02%, 0.05%, 0.1%; glucose uptake ten days after differentiation induction. The source says:
Inhibitory effect of GI5 (5) and nuzhenide (3) on undifferentiated 3T3-L1 cells. The major component of weight gain is deposition of adipose tissue in body through the adipogenesis process. Adipogenesis is characterized by increase in the size and number of fat cells. The secoiridoids, GI5 and nuzhenide isolated from F. excelsior, have shown significant and mild adipogenesis inhibitory activity, respectively, by blocking the pathway from undifferentiated 3T3-L1 cell to differentiated adipocyte to achieve an effect on bodyweight control and body fat loss. 3T3-L1 preadipocytes were induced to differentiate with methylisobutylxanthine, dexamethasone, and insulin (MDI) hormonal cocktail in the presence or absence of compounds. Ten days after differentiation induction, the treated cells were assayed for their respective glucose uptake activity, which is an indirect measurement of differentiation (adipogenesis) because preadipocytes are incapable of insulin-induced, glucose transport-4 (GLUT4)-mediated glucose uptake while fully differentiate adipocytes are capable of this uptake. Compounds, GI5 and nuzhenide, were used at four different concentrations: 0.004%, 0.02%, 0.05%, and 0.1%. Untreated (undifferentiated) cells were used as a negative control while insulin was used as a positive control. Methanol (MeOH), the solvent of the compounds, was also used as a control.

For the molecule `C/C=C1/[C@H](O[C@@H]2O[C@H](CO[C@@H]3O[C@H](CO)[C@@H](O)[C@H](O)[C@H]3O)[C@@H](O)[C@H](O)[C@H]2O)OC=C(C(=O)OC)[C@H]1CC(=O)OC` [excelside A, (2S,3E,4S) 2H-Pyran-4-acetic acid-3-ethylidene-2-[(6-O-β-D-glucopyranosyl-β-D-glucopyranosyl)oxy]-3,4-dihydro-5-(methoxycarbonyl)methyl ester], the PPAR-alpha activity entry at PPAR-alpha is recorded as “good activity”.

As to `C/C=C1\C(CC(=O)OC[C@H]2O[C@@H](OCCc3ccc(O)cc3)[C@H](O)[C@@H](O)[C@@H]2O)C(C(=O)OC)=CO[C@H]1O[C@@H]1O[C@H](CO)[C@@H](O)[C@H](O)[C@H]1O` (stereo partly drawn) [nuzhenide], the adipogenesis inhibitory activity entry in the assay on 3T3-L1 cells is listed as “mild”.

As for `C/C=C1\[C@H](O[C@@H]2O[C@H](CO)[C@@H](O)[C@H](O)[C@H]2O)OC=C(C(=O)OC)[C@H]1CC(=O)OC` [oleoside dimethyl ester], the PPAR-alpha activity result at PPAR-alpha is reported as “good activity”.

Source of the values: US8293292B2, “Extract of Fraxinus excelsior seeds and therapeutic applications therefor” (Naturex, S.A., priority 2008, dated 2012).
